Data as given in patent publication US20080299140A1, “Immunogenic Composition and Peptide Sequences for Prevention and Treatment of an Hsv Condition” (priority 2002, published 2008).

Tests used:
T-cells = experiment: Cytokine analysis (IL-2, IL-4, IFN-γ sandwich ELISA); type: cell-based, mice
Protocol: T-cells were stimulated with either immunizing peptides (10 μg/ml), the irrelevant control peptide (10 μg/ml), UV-inactivated HSV-1 (MOI=3), or with ConA (0.5 μg/ml) as a positive control. Culture media were harvested 48 h (for IL-2) or 96 h (for IL-4 and IFN-γ) later and analyzed by specific sandwich ELISA following the manufacturer's instructions (PharMingen, San Diego, Calif.).

[1] = system: lymphocytes obtained from HSV-1 infected H-2^d mice; experiment: HSV-primed T-cell responses to gD peptides in HSV-1 infected mice; type: cell-based; conditions: HSV-1 infected H-2^d mice
Protocol: Twelve days after the second immunization, spleen and inguinal lymph nodes (LN) were removed and placed into ice-cold serum free HL-1 medium supplemented with 15 mM HEPES, 5×10^−5 M β-mercaptoethanol, 2 mM glutamine, 50 U of penicillin and 50 μg of streptomycin (GIBCO-BRL, Grand Island, N.Y.) (complete medium, CM). The cells were cultured in 96-well plates at 5×10^5 cells/well in CM, with recall or control peptide at 30, 10, 3, 1, or 0.3 μg/ml concentration, as previously described in (BenMohamed et al., 2000 and 2002). The cell suspensions were incubated for 72 h at 37° C. in 5% CO2. One μCi (micro-curie) of (^3H)-thymidine (Dupont MEN, Boston, Mass.) was added to each well during the last 16 h of culture. The incorporated radioactivity was determined by harvesting cells onto glass fiber filters and counted on a Matrix 96 direct ionization-counter (Packard Instruments, Meriden, Conn.). Results were expressed as the mean cpm of cell-associated (^3H)-thymidine recovered from wells containing Ag minus the mean cpm of cell-associated (^3H)-thymidine recovered from wells without Ag (A cpm) (average of triplicate). The Stimulation Index (SI) was calculated as the mean cpm of cell-associated (^3H)-thymidine recovered from wells containing Ag divided by the mean cpm of cell-associated (^3H)-thymidine recovered from wells without Ag (average of triplicate). For all experiments the irrelevant control peptide gB141-165 and the T-cell mitogen Concanavalin A (ConA) (Sigma, St. Louis, Mo.) were used as negative and positive controls, respectively. Proliferation results were confirmed by repeating each experiment twice. A T-cell proliferative response was considered positive when A cpm>1000 and SI>2.
To define the fine specificity of broadly reactive T-cells associated with viral immunity and to explore immunodominance in the context of HSV infection, proliferation of lymphocytes obtained from twenty HSV-1 infected H-2^d mice were evaluated using the twelve gD peptides as Ag (FIG. 6). […] Despite a difference between individual mice, a unique array of T-cell responses was identified for each of the twenty infected mice analyzed.

[2] = system: HLA-DR and HLA-DP molecules; experiment: MHC class II binding assays, panel of twelve HLA class II molecules (number of alleles bound); conditions: number of the twelve class II MHC alleles bound; title: Threshold 600 nM/5 alleles
[3] = T cells treated with Abs to CD4
[4] = T cells treated with Abs to CD8
[5] = splenocyte derived T cells, no Abs, average of triplicates (+/- SD)

SMILES | IFNγ, Anti-CD4 (T-cells; [3]) | IL-2, Anti-CD4 (T-cells; [3]) | IFNγ, Anti-CD8 (T-cells; [4]) | IL-2, Anti-CD8 (T-cells; [4]) | IFNγ, None (T-cells; [5]) | IL-2, None (T-cells; [5]) | immunodominance of epitopes in HSV-primed T-cell responses [1] | Range [2]
CC[C@H](C)[C@H](N)C(=O)N[C@@H](CS)C(=O)NCC(=O)N[C@H](C(=O)N[C@H](C(=O)N[C@@H](Cc1ccc(O)cc1)C(=O)N[C@@H](Cc1c[nH]c2ccccc12)C(=O)N[C@@H](CCSC)C(=O)N[C@@H](CCCNC(=N)N)C(=O)N[C@@H](CCCNC(=N)N)C(=O)N[C@@H](Cc1c[nH]cn1)C(=O)N[C@H](C(=O)N[C@@H](CCC(N)=O)C(=O)N[C@@H](CCCCN)C(=O)N[C@@H](C)C(=O)N1CCC[C@H]1C(=O)N[C@@H](CCCCN)C(=O)N[C@@H](CCCNC(=N)N)C(=O)N[C@H](C(=O)N[C@@H](CCCNC(=N)N)C(=O)N[C@@H](CC(C)C)C(=O)N1CCC[C@H]1C(=O)N[C@@H](Cc1c[nH]cn1)C(=O)N[C@H](C(=O)N[C@@H](CCCNC(=N)N)C(=O)N[C@@H](CCC(=O)O)C(=O)N[C@@H](CC(=O)O)C(=O)O)[C@@H](C)CC)[C@@H](C)CC)[C@@H](C)O)C(C)C)[C@@H](C)CC [HSV 39] | 4 (+/−1) ng/ml | 36 (+/−1) pg/ml | 54 (+/−1) ng/ml | 13 (+/−4) pg/ml | 179 (+/5−) ng/ml | 135 (+/6−) pg/ml | immunodominant epitopes | 6
CC[C@H](C)[C@H](NC(=O)[C@@H](N)[C@@H](C)O)C(=O)N[C@@H](C)C(=O)N[C@@H](Cc1c[nH]c2ccccc12)C(=O)N[C@@H](Cc1ccccc1)C(=O)N[C@@H](CCCNC(=N)N)C(=O)N[C@@H](CCSC)C(=O)NCC(=O)NCC(=O)N[C@@H](CC(N)=O)C(=O)N[C@@H](CS)C(=O)N[C@@H](C)C(=O)N[C@H](C(=O)N1CCC[C@H]1C(=O)N[C@H](C(=O)N[C@H](C(=O)N[C@H](C(=O)N[C@@H](CCSC)C(=O)N[C@@H](CCC(=O)O)C(=O)N[C@@H](Cc1ccc(O)cc1)C(=O)N[C@H](C(=O)N[C@@H](CCC(=O)O)C(=O)N[C@@H](CS)C(=O)N[C@@H](CO)C(=O)N[C@@H](Cc1ccc(O)cc1)C(=O)N[C@@H](CC(N)=O)C(=O)N[C@@H](CCCCN)C(=O)N[C@@H](CO)C(=O)O)[C@@H](C)O)C(C)C)[C@@H](C)O)[C@@H](C)CC)[C@@H](C)CC [HSV 41] | – | – | – | – | – | – | subdominant epitopes | 8
